Measurements as given in patent US9134328B2, “Methods of using benzothiazole derivative compounds and compositions” (University of Pittsburgh—Of the Commonwealth System of …, priority 2003, dated 2015).

Tests used:
[1] = In vivo baboon PET imaging studies; settings: for peak maximum radioactivity remaining in brain at later time points / early-to-late brain radioactivity concentration: baboon brain; for early-to-late brain radioactivity concentration: ratio of early to late radioactivity concentration; for rate of non-specific clearance (t1/2): baboon cerebellum (reference region devoid of specific binding); for higher concentration of radioactivity at 90 minutes in white matter regions than in gray matter regions / clearance half-time from baboon brain gray matter / brain penetration of radioactivity at early time points: control baboon; for higher concentration of radioactivity at 90 minutes in white matter regions than in gray matter regions: 90 minutes post-injection, white matter vs gray matter such as temporal cortex; for clearance half-time from baboon brain gray matter / brain penetration of radioactivity at early time points: intravenous injection; for clearance half-time from baboon brain gray matter: PET; for brain penetration of radioactivity at early time points: PET time-activity curve, all three brain regions
Description: PET imaging studies in adult baboons (Papio anubis) (weight 15-35 kg, ages 6-12 years) were performed with Compound B and Compound C in accordance with the Guide for the Care and Use of Laboratory Animals adopted by NIH and with the approval of the local Institutional Animal Care and Use Committee. Prior to PET imaging, the animals were initially sedated with ketamine (10-15 mg/kg, i.m.), given atropine (0.5 mg, i.m.) to control salivation and heart rate, and intubated. The baboons were subsequently maintained on a ventilator with isofluorane (0.5-1.25%) anesthesia and medical air. Pancuronium bromide was administered as necessary (intravenously, up to 0.06 mg/kg/hour, titrated to effect) to keep the animals immobilized during the study. A femoral artery catheter was inserted to monitor blood pressure and sample arterial blood, and an intravenous catheter was placed in an antecubital vein for radiotracer injection and to administer fluids as necessary throughout the course of the imaging study. Blood pressure, heart and respiratory rates, and expired CO2 and oxygen saturation levels were monitored continuously during the PET studies. The baseline rectal body temperature (˜37° C.) was maintained using a heating blanket (Gaymar, Orchard Park, N.Y.) and temperature regulator (Yellow Springs Instruments, Yellow Springs, Ohio). Prior to scanning, the baboon's head was fixed so that the image planes were acquired approximately parallel to the orbital-meatal line.
PET data were acquired using an ECAT HR+PET scanner (CTI PET Systems, Knoxyille, Tenn.) in 3D imaging mode (63 parallel slices; 15.2 cm axial field-of-view; 4.1 mm full-width half-maximum in-plane resolution). A Neuro-Insert (CTI PET Systems) was used to reduce the contribution of scattered photon events. After the baboons were positioned in the PET scanner, a windowed transmission scan (10-15 minutes) was obtained for attenuation correction of the PET emission data using rotating ^68Ge/^68Ga rods. Compound B and Compound C were administered intravenously over 20 seconds, and a dynamic series of PET scans were acquired over 90 minutes using 26 frames of increasing length (6×20 seconds; 4×30 seconds; 6×60 seconds; 4×5 minutes; 6×10 minutes). Approximately 185 MBq (˜5 mCi) of a high specific activity (>14.8 GBq/μmol) Compound B or Compound C was injected in a baboon. In other studies, 148-296 MBq (4-8 mCi) of a high specific activity (>18.5 GBq/μmol) reference PET radiotracer was injected, including either [^11C](+)-McN5652, [carbonyl-^11C]WAY100635, or [^18F]altanserin. The PET data were reconstructed using a Hanning filter (Nyquist cut-off) and corrected for decay, photon attenuation, and scatter.
An MRI scan was obtained for each baboon using a 1.5T GE Signa scanner (GE Medical Systems, Milwaukee, Wis.) equipped with a standard head coil. A volumetric spoiled gradient recalled (SPGR) MR sequence with parameters for high contrast among gray matter, white matter, and cerebral spinal fluid (CSF) was acquired in the coronal plane (TE=5, TR=24, flip angle=40°, slice thickness=1.5 mm, NEX=2, field of view 12 cm, voxel size=0.94×1.25×1.5 mm). Each individual baboon's MR image was coregistered to the PET data using the automated image registration (AIR) algorithm for cross-modality image alignment and reslicing. The initial 16 frames ([…] post-injection) of the dynamic PET images were summed together into images consisting of a single frame. Prior to co-registration, both the MR and summed PET images were edited using the ANALYZE software package (Mayo Clinic. Rochester, Minn.) to remove extracerebral tissues that could possibly confound the co-registration process. The edited MR images were then coregistered to the summed PET image and resliced to yield MR images in the same spatial orientation and resolution as the summed PET images.

[2] = In vivo mouse brain entry studies; set-up: species or system female Swiss-Webster mice
Description: This study reflects brain entry and clearance from normal brain tissue.
The mice were anesthetized and killed by cardiac excision following cardiac puncture to obtain arterial blood samples at 2 minutes or 30 minutes post-injection. The mouse brains were rapidly excised and divided into the cerebellum and the remaining whole brain (including brain stem) fractions. The brain samples were counted in a gamma well-counter, and the counts were decay-corrected to the time of injection relative to ^125I or ^18F standards prepared from the injection solution to determine the percent injected dose (% ID) in the samples. The brain samples were weighed to determine the percent injected dose per gram tissue (% ID/g), and this quantity was multiplied by the whole body weight (in kg) to determine the body-weight normalized radioactivity concentration [(% ID-kg)/g] of each tissue sample.

[3] = baboon cerebellar time-activity curves, reference PET radioligands

| Structure (SMILES) | peak maximum radioactivity remaining in brain at later time points [1] | early-to-late brain radioactivity concentration [1] | rate of non-specific clearance (t1/2) [1] | higher concentration of radioactivity at 90 minutes in white matter regions than in gray matter regions [1] | clearance half-time from baboon brain gray matter [1] | brain penetration of radioactivity at early time points [1] | non-specific binding clearance rate (in words) [1, 3] | further results |
| --- | --- | --- | --- | --- | --- | --- | --- | --- |
| CNc1ccc(-c2nc3ccc(O)cc3s2)cc1[18F] [Compound B, 2-(3-[^18F]-fluoro-4-methylamino-phenyl)-benzothiazol-6-ol] | about 25% | about 4 | 17 min | ~30% | about 17 minutes | about 0.40 % ID-kg/g | – | 2 min./30 min. Ratio ([2]; mouse, in vivo): 10; Radioactivity Conc. at 2 min. ([2]; mouse, in vivo): 0.29 % ID-kg/g; Radioactivity Conc. at 30 min. ([2]; mouse, in vivo): 0.030 % ID-kg/g; brain entry and clearance (in words) ([2]; mouse, in vivo): relatively high brain entry at early time points and fast clearance at later time points |
| Oc1ccc2nc(-c3ccc(NCCC[18F])cc3)sc2c1 [Compound C, 2-[4-(3-^18F-fluoro-propylamino)-phenyl]benzothiazol-6-ol] | about 15% | about 6 | 10 min | < 10% | about 10 minutes | about 0.22 % ID-kg/g | – | brain entry and clearance (in words) ([2]; mouse brain, 2 and 30 minutes post-injection): relatively high brain entry at early time points and fast clearance at later time points; Radioactivity Conc. at 2 min. ([2]; mouse brain, 2 minutes post-injection, lateral tail vein injection, wild type mice without amyloid deposits): 0.17 % ID-kg/g; Radioactivity Conc. at 30 min. ([2]; mouse brain, 30 minutes post-injection, lateral tail vein injection, wild type mice without amyloid deposits): 0.011 % ID-kg/g; 2 min./30 min. Ratio ([2]; ratio of 2 minutes-to-30 minutes (% ID-kg)/g values, mouse brain, measure of non-specific binding clearance rate): 16 |
| [11CH3]Sc1ccc([C@@H]2CN3CCC[C@@H]3c3ccccc32)cc1 [[^11C](+)-McN5652, reference compound] | – | – | – | – | – | – | relatively slow in vivo clearance | – |
| O=C(c1ccc([18F])cc1)C1CCN(CCn2c(=S)[nH]c3ccccc3c2=O)CC1 [[^18F]altanserin, reference compound] | – | – | – | – | – | – | relatively rapid non-specific binding clearance rates | – |
| COc1ccccc1N1CCN(CCN(c2ccccn2)[11C](=O)C2CCCCC2)CC1 [[carbonyl-^11C]WAY100635, reference compound] | – | – | – | – | – | – | – | non-specific binding clearance rate (in words) ([1]; in vivo): relatively rapid non-specific binding clearance rates |
